We go through eight compounds from PubChem BioAssay (NCI).

Test systems include A549 NSCLC; BT-549 breast; HS 578T breast; LOX IMVI melanoma; NCI/ADR-RES ovarian; OVCAR-8 ovarian; SF-295 CNS; SF-539 CNS; SK-MEL-28 melanoma; SR leukemia.
Common to all, as to assay: NCI-60 cell line screen, 48 h

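Each compound was tested at five concentrations against cells in 96-well plates for 48 hours. GI50 marks 50% less growth. TGI is the concentration that stops growth completely.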 Some results are limits rather than exact numbers.

For `Cc1ccc(O)c(NC(=O)c2cccc(Nc3ccnc(C(F)(F)F)c3)c2)c1`, the GI50 in the assay with A549 NSCLC was 5.09 µM; with BT-549 breast, 3.18 µM; in the assay on HS 578T breast, 16.1 µM; in the assay on LOX IMVI melanoma, 9.46 µM; in the assay on NCI/ADR-RES ovarian it was 3 µM; in the assay on OVCAR-8 ovarian, 5.52 µM. For the same compound, the GI50 in the assay with SF-295 CNS was 6.73 µM; with SF-539 CNS, 12.5 µM; with SK-MEL-28 melanoma, 16 µM; in the assay on SR leukemia, 1.02 µM. The TGI amounted to 28 µM in the assay with A549 NSCLC; 21.6 µM with BT-549 breast; 40.3 µM with HS 578T breast; 27.4 µM with LOX IMVI melanoma; 32.4 µM with NCI/ADR-RES ovarian; 19.7 µM with OVCAR-8 ovarian. Moreover, the TGI with SF-295 CNS worked out at 27.6 µM; in the assay on SF-539 CNS, 25.7 µM; in the assay on SK-MEL-28 melanoma it was 31.2 µM; with SR leukemia, 16.4 µM.

Take `Cc1cc2c(C(=O)NC[C@H](C)c3ccccc3)c(O)c(O)cc2c(O)c1-c1c(C)cc2c(C(=O)NC[C@H](C)c3ccccc3)c(O)c(O)cc2c1O`: the GI50 in the assay on A549 NSCLC was 0.0693 µM; in the assay with BT-549 breast, 0.0437 µM; in the assay with HS 578T breast it was 0.274 µM; in the assay on LOX IMVI melanoma, 0.539 µM; in the assay on NCI/ADR-RES ovarian, 0.252 µM; in the assay on OVCAR-8 ovarian, 0.588 µM. For the same compound, the GI50 with SF-295 CNS is 0.131 µM; in the assay on SF-539 CNS, 0.242 µM; with SK-MEL-28 melanoma, 0.437 µM; in the assay on SR leukemia it was 0.376 µM. For the same compound, the TGI with A549 NSCLC came to 3.23 µM; in the assay on BT-549 breast, 2.03 µM; in the assay on HS 578T breast it was 2.56 µM; with LOX IMVI melanoma, 4.89 µM; with NCI/ADR-RES ovarian, 4.3 µM; in the assay with OVCAR-8 ovarian, 10.1 µM. Besides, the TGI was 0.702 µM in the assay with SF-295 CNS, 1.02 µM in the assay on SF-539 CNS, 4.41 µM in the assay with SK-MEL-28 melanoma and 4.51 µM in the assay with SR leukemia.

With `Cc1nn(CNc2ccccc2C(F)(F)F)c(=S)n1/N=C/c1cccc2cccnc12`, the GI50 is greater than 100 µM in the assay on A549 NSCLC; greater than 100 µM in the assay on BT-549 breast; greater than 100 µM in the assay with HS 578T breast; 34.7 µM in the assay with LOX IMVI melanoma; 35.3 µM in the assay on NCI/ADR-RES ovarian; greater than 100 µM in the assay on OVCAR-8 ovarian. The GI50 with SF-295 CNS is greater than 100 µM; in the assay with SF-539 CNS, greater than 100 µM; with SK-MEL-28 melanoma it was greater than 100 µM; with SR leukemia it was 20.2 µM. The TGI in the assay with A549 NSCLC, in the assay with BT-549 breast, with HS 578T breast, in the assay on LOX IMVI melanoma, with NCI/ADR-RES ovarian and with OVCAR-8 ovarian was greater than 100 µM throughout. The TGI is greater than 100 µM with SF-295 CNS, greater than 100 µM in the assay on SF-539 CNS, greater than 100 µM in the assay on SK-MEL-28 melanoma and 67.6 µM with SR leukemia.

Take `O=C(O)c1cc(-c2ccc3cc4c(cc3c2)OCO4)nc2ccccc12`: the TGI with A549 NSCLC, with BT-549 breast, in the assay on HS 578T breast, in the assay on LOX IMVI melanoma, in the assay on NCI/ADR-RES ovarian and in the assay with OVCAR-8 ovarian was greater than 100 µM throughout. Further, the TGI in the assay with SF-295 CNS is greater than 100 µM; in the assay with SF-539 CNS, greater than 100 µM; with SK-MEL-28 melanoma it was greater than 100 µM; in the assay with SR leukemia, 88.9 µM.

With `O=C1NC(=C(Cl)Cl)/C(=N/S(=O)(=O)N2CCCCC2)N1`, the GI50 with A549 NSCLC is 6.85 µM; with BT-549 breast, 2.33 µM; in the assay on HS 578T breast it was 3.18 µM; in the assay with LOX IMVI melanoma, 1.86 µM; with NCI/ADR-RES ovarian, 3.87 µM; in the assay on OVCAR-8 ovarian, 2.1 µM. Also, the GI50 in the assay on SF-295 CNS is 5.14 µM; in the assay on SF-539 CNS, 2.2 µM; with SK-MEL-28 melanoma it was 1.92 µM; in the assay on SR leukemia it was 1.5 µM. Also, the TGI in the assay with A549 NSCLC was 22.2 µM; with BT-549 breast, 5.62 µM; in the assay on HS 578T breast, 10.7 µM; in the assay on LOX IMVI melanoma, 3.58 µM; in the assay on NCI/ADR-RES ovarian, 29.2 µM; in the assay on OVCAR-8 ovarian it was 4.6 µM. The TGI in the assay with SF-295 CNS is 17.3 µM; in the assay on SF-539 CNS, 5.55 µM; with SK-MEL-28 melanoma it was 3.56 µM; in the assay on SR leukemia it was 3.89 µM.

As for `COc1ccccc1Nc1cc(O)c2c(=O)cc(-c3ccccc3)oc2c1`, the GI50 was 5.16 µM with A549 NSCLC; 4.96 µM in the assay with BT-549 breast; 3.61 µM in the assay with HS 578T breast; 3.41 µM in the assay on LOX IMVI melanoma; 1.99 µM in the assay with NCI/ADR-RES ovarian; 4.65 µM in the assay on OVCAR-8 ovarian. Besides, the GI50 was 2.98 µM with SF-295 CNS, 2.73 µM in the assay on SF-539 CNS, 3.64 µM with SK-MEL-28 melanoma and 0.529 µM with SR leukemia. Further, the TGI was greater than 100 µM with A549 NSCLC; 37.2 µM in the assay with BT-549 breast; 32.6 µM in the assay on HS 578T breast; greater than 100 µM with LOX IMVI melanoma; 18 µM in the assay with NCI/ADR-RES ovarian; greater than 100 µM in the assay with OVCAR-8 ovarian. Besides, the TGI is 13.2 µM with SF-295 CNS, 10.4 µM in the assay with SF-539 CNS, 25.8 µM in the assay with SK-MEL-28 melanoma and greater than 100 µM in the assay with SR leukemia.

With `CC(C)C[C@H](NC(=O)CNC(=O)c1cc(Cl)ccc1Cl)B(O)O`, the GI50 is 0.046 µM with A549 NSCLC; less than 0.0145 µM in the assay with BT-549 breast; 0.0489 µM in the assay on HS 578T breast; 0.0224 µM in the assay on LOX IMVI melanoma; 0.183 µM in the assay with NCI/ADR-RES ovarian; 0.0659 µM in the assay with OVCAR-8 ovarian. Besides, the GI50 is 0.0252 µM with SF-295 CNS, less than 0.0125 µM with SF-539 CNS, less than 0.0175 µM in the assay with SK-MEL-28 melanoma and less than 0.0152 µM in the assay on SR leukemia. Further, the TGI was 7.6 µM in the assay on A549 NSCLC; 0.137 µM in the assay with BT-549 breast; greater than 50.4 µM in the assay on HS 578T breast; 0.0597 µM with LOX IMVI melanoma; greater than 100 µM in the assay with NCI/ADR-RES ovarian; 15.3 µM in the assay with OVCAR-8 ovarian. Also, the TGI in the assay on SF-295 CNS is 0.1 µM; in the assay on SF-539 CNS, 0.0258 µM; in the assay with SK-MEL-28 melanoma, 0.174 µM; with SR leukemia it was 0.385 µM.

For `C=C(c1ccc(OC)c(/C=C/C(=O)c2ccc3c(c2)OCO3)c1)c1cc(OC)c(OC)c(OC)c1`, the GI50 is 3.54 µM in the assay with A549 NSCLC; 2.15 µM in the assay with BT-549 breast; 4.65 µM in the assay on HS 578T breast; 1.58 µM in the assay on LOX IMVI melanoma; 2.77 µM in the assay on NCI/ADR-RES ovarian; 2.89 µM in the assay with OVCAR-8 ovarian. Moreover, the values for the GI50 in the assay with SF-295 CNS, with SF-539 CNS and with SR leukemia were 4.14 µM, 2.36 µM and 0.907 µM, respectively. Further, the TGI with A549 NSCLC is greater than 100 µM; with BT-549 breast, 7.27 µM; with HS 578T breast, greater than 100 µM; with LOX IMVI melanoma, 3.52 µM; in the assay on NCI/ADR-RES ovarian, 37.2 µM; in the assay on OVCAR-8 ovarian it was 18.2 µM. The TGI in the assay on SF-295 CNS is greater than 100 µM; in the assay with SF-539 CNS, 7.24 µM; in the assay on SR leukemia, greater than 100 µM.
